Laboratory results as given in patent US8772250B2, “Compositions and methods for treating ischemia and ischemia-reperfusion injury” (Ischemix, LLC, priority 2010, dated 2014).
Read-outs that look alike come from different tables or passages of the source.

Assay: Pharmacokinetic evaluation in humans
Type: in vivo
Settings: human; for clearance / Cmax / Vd / half-life / AUC(0-t) / AUC(0-inf): plasma
Experimental: Plasma and urine RLip-EA-OH concentrations were measured at BASi, Inc. (West Lafayette, Ind.) using a LC/MS/MS method with positive turbo ion spray, in the multiple reaction-monitoring mode. The quantifiable range for human plasma was 1.00 to 500 ng/mL and QC samples were included at 3.00, 75.0 and 375 ng/mL.
The PK population included subjects who received RLip-EA-OH and had ≧1 post-dose PK measurement. […] Plasma samples from 24 subjects (6 RLip-EA-OH subjects per cohort) were analyzed (Tables 16 and 17).

C[C@H](NC(=O)[C@H](CCC(=O)O)NC(=O)CCCC[C@@H]1CCSS1)C(=O)O [RLip-EA-OH, N-(R)-lipoyl-L-glutamyl-L- alanine]
clearance (150 mg, compartmental, read-out: CL, Median (converted)): 363 mL/min
clearance (150 mg, compartmental, read-out: CL, Minimum, maximum): 260 to 512 mL/min
Cmax (150 mg, compartmental, read-out: Estimated Cmax, Mean (SD)): 18.1 µg/mL
Cmax (150 mg, compartmental, read-out: Estimated Cmax, Median): 18.4 µg/mL
Cmax (150 mg, compartmental, read-out: Estimated Cmax, Minimum, maximum): 14.2 to 20.6 µg/mL
Vd (150 mg, compartmental, read-out: Vss, Mean (SD)): 13 L
Vd (150 mg, compartmental, read-out: Vss, Median): 13 L
Vd (150 mg, compartmental, read-out: Vss, Minimum, maximum): 9 to 17 L
half-life (150 mg, compartmental, read-out: t1/2, Mean (SD) (converted)): 1.8 h
half-life (150 mg, compartmental, read-out: t1/2, Median (converted)): 1.4 h
half-life (150 mg, compartmental, read-out: t1/2, Minimum, maximum): 1.1 to 3.3 h
AUC(0-t) (150 mg, noncompartmental, read-out: AUC0-t, Mean (SD)): 6.98 µg·h/mL
AUC(0-t) (150 mg, noncompartmental, read-out: AUC0-t, Median): 6.9 µg·h/mL
AUC(0-t) (150 mg, noncompartmental, read-out: AUC0-t, Minimum, maximum): 4.97 to 9.33 µg·h/mL
AUC(0-inf) (150 mg, noncompartmental, read-out: AUCinf, Mean (SD)): 6.99 µg·h/mL
AUC(0-inf) (150 mg, noncompartmental, read-out: AUCinf, Median): 6.92 µg·h/mL
AUC(0-inf) (150 mg, noncompartmental, read-out: AUCinf, Minimum, maximum): 4.98 to 9.34 µg·h/mL
clearance (150 mg, noncompartmental, read-out: CL, Mean (SD) (converted)): 372 mL/min
clearance (150 mg, noncompartmental, read-out: CL, Median (converted)): 363 mL/min
clearance (150 mg, noncompartmental, read-out: CL, Minimum, maximum): 268 to 502 mL/min
Cmax (150 mg, noncompartmental, read-out: Cmax, Mean (SD)): 17.1 µg/mL
Cmax (150 mg, noncompartmental, read-out: Cmax, Median): 16.9 µg/mL
Cmax (150 mg, noncompartmental, read-out: Cmax, Minimum, maximum): 14.9 to 20 µg/mL
Vd (150 mg, noncompartmental, read-out: Vss, Mean (SD)): 13.6 L
Vd (150 mg, noncompartmental, read-out: Vss, Median): 13.2 L
Vd (150 mg, noncompartmental, read-out: Vss, Minimum, maximum): 9.9 to 16.6 L
half-life (150 mg, noncompartmental, read-out: t1/2, Mean (SD) (converted)): 1.23 h
half-life (150 mg, noncompartmental, read-out: t1/2, Median (converted)): 1.25 h
half-life (150 mg, noncompartmental, read-out: t1/2, Minimum, maximum): 0.97 to 1.52 h
AUC(0-inf) (300 mg, compartmental, read-out: AUCinf, Mean (SD)): 16.4 µg·h/mL
AUC(0-inf) (300 mg, compartmental, read-out: AUCinf, Median): 16.4 µg·h/mL
AUC(0-inf) (300 mg, compartmental, read-out: AUCinf, Minimum, maximum): 11.5 to 22.6 µg·h/mL
clearance (300 mg, compartmental, read-out: CL, Mean (SD) (converted)): 323 mL/min
clearance (300 mg, compartmental, read-out: CL, Median (converted)): 305 mL/min
clearance (300 mg, compartmental, read-out: CL, Minimum, maximum): 222 to 435 mL/min
Cmax (300 mg, compartmental, read-out: Estimated Cmax, Mean (SD)): 46.3 µg/mL
Cmax (300 mg, compartmental, read-out: Estimated Cmax, Median): 43.4 µg/mL
Cmax (300 mg, compartmental, read-out: Estimated Cmax, Minimum, maximum): 31 to 70.1 µg/mL
Vd (300 mg, compartmental, read-out: Vss, Mean (SD)): 11 L
Vd (300 mg, compartmental, read-out: Vss, Median): 11 L
Vd (300 mg, compartmental, read-out: Vss, Minimum, maximum): 8 to 16 L
half-life (300 mg, compartmental, read-out: t1/2, Mean (SD) (converted)): 1.5 h
half-life (300 mg, compartmental, read-out: t1/2, Median (converted)): 1.2 h
half-life (300 mg, compartmental, read-out: t1/2, Minimum, maximum): 1 to 2.5 h
AUC(0-t) (300 mg, noncompartmental, read-out: AUC0-t, Mean (SD)): 16.5 µg·h/mL
AUC(0-t) (300 mg, noncompartmental, read-out: AUC0-t, Median): 16.5 µg·h/mL
AUC(0-t) (300 mg, noncompartmental, read-out: AUC0-t, Minimum, maximum): 11.6 to 23.1 µg·h/mL
AUC(0-inf) (300 mg, noncompartmental, read-out: AUCinf, Mean (SD)): 16.5 µg·h/mL
AUC(0-inf) (300 mg, noncompartmental, read-out: AUCinf, Median): 16.5 µg·h/mL
AUC(0-inf) (300 mg, noncompartmental, read-out: AUCinf, Minimum, maximum): 11.6 to 23.1 µg·h/mL
clearance (300 mg, noncompartmental, read-out: CL, Mean (SD) (converted)): 322 mL/min
clearance (300 mg, noncompartmental, read-out: CL, Median (converted)): 303 mL/min
clearance (300 mg, noncompartmental, read-out: CL, Minimum, maximum): 217 to 430 mL/min
Cmax (300 mg, noncompartmental, read-out: Cmax, Mean (SD)): 42.2 µg/mL
Cmax (300 mg, noncompartmental, read-out: Cmax, Median): 42.1 µg/mL
Cmax (300 mg, noncompartmental, read-out: Cmax, Minimum, maximum): 32 to 58.1 µg/mL
Vd (300 mg, noncompartmental, read-out: Vss, Mean (SD)): 11.7 L
Vd (300 mg, noncompartmental, read-out: Vss, Median): 11.1 L
Vd (300 mg, noncompartmental, read-out: Vss, Minimum, maximum): 8.9 to 15.1 L
half-life (300 mg, noncompartmental, read-out: t1/2, Mean (SD) (converted)): 1.45 h
half-life (300 mg, noncompartmental, read-out: t1/2, Median (converted)): 1.14 h
half-life (300 mg, noncompartmental, read-out: t1/2, Minimum, maximum): 0.99 to 2.35 h
clearance (300 mg, read-out: CL (converted)): 322 mL/min
half-life (300 mg, read-out: mean terminal-phase t1/2 (converted)): 1.45 h
AUC(0-inf) (across doses 20 to 300 mg, read-out: AUCinf): 0.583 to 16.5 µg·h/mL
half-life (at the mg dose, read-out: mean terminal-phase t1/2 (converted)): 0.86 h
Vd (decreased with increasing dose, read-out: Vss): 12 to 18 L
Vd (read-out: volume of distribution of the central compartment (Vc)): ~6 L
V1, Mean (SD) (20 mg, compartmental): 6.61 (3.20) L
V1, Median (20 mg, compartmental): 6.13 L
% Excreted Unchanged, Mean (SD) (20 mg, noncompartmental): 28.5 (9.6) %
% Excreted Unchanged, Median (20 mg, noncompartmental): 31.0%
V1, Mean (SD) (60 mg, compartmental): 6.62 (1.65) L
V1, Median (60 mg, compartmental): 6.69 L
% Excreted Unchanged, Mean (SD) (60 mg, noncompartmental): 39.1 (4.0) %
% Excreted Unchanged, Median (60 mg, noncompartmental): 40.6%
V1, Mean (SD) (150 mg, compartmental): 6.09 (1.42) L
V1, Median (150 mg, compartmental): 5.86 L
% Excreted Unchanged, Mean (SD) (150 mg, noncompartmental): 32.5 (13.9) %
% Excreted Unchanged, Median (150 mg, noncompartmental): 33.3%
V1, Mean (SD) (300 mg, compartmental): 4.91 (1.56) L
V1, Median (300 mg, compartmental): 5.59 L
% Excreted Unchanged, Mean (SD) (300 mg, noncompartmental): 43.6 (8.8) %
% Excreted Unchanged, Median (300 mg, noncompartmental): 46.3%
